Measurements reported in ChEMBL document CHEMBL1201862, “PubChem BioAssay data set” (2004).
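A five-concentration, 48-hour dose response in 96-well plates underlies each endpoint, interpolated linearly between surrounding concentrations. GI50 marks 50% less growth.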 The source made the active and inactive calls. Cut-off read from the data, not from the text of the source: active = GI50 up to about 1.1 µM and inactive = higher.

Experiments:
Assay in all cases: growth of human tumour cells (NCI), 48 h
[1] = tested on: 786-0
[2] = tested on: A498
[3] = tested on: A549
[4] = tested on: ACHN
[5] = tested on: BT-549
[6] = tested on: CAKI-1
[7] = tested on: CCRF-CEM
[8] = tested on: COLO 205
[9] = tested on: DU-145
[10] = tested on: EKVX
[11] = tested on: HCC 2998
[12] = tested on: HCT-116
[13] = tested on: HCT-15
[14] = tested on: HL-60
[15] = tested on: HOP-62
[16] = tested on: HOP-92
[17] = tested on: HT-29
[18] = tested on: Hs-578T
[19] = tested on: IGROV-1
[20] = tested on: K562
[21] = tested on: KM12
[22] = tested on: LOX IMVI
[23] = tested on: M14
[24] = tested on: MCF7
[25] = tested on: MDA-MB-231
[26] = tested on: MDA-MB-435
[27] = tested on: MDA-N
[28] = tested on: MOLT-4
[29] = tested on: Malme-3M
[30] = tested on: NCI-H23
[31] = tested on: NCI-H460
[32] = tested on: NCI-H522
[33] = tested on: NCI/ADR-RES
[34] = tested on: OVCAR-3
[35] = tested on: OVCAR-4
[36] = tested on: OVCAR-5
[37] = tested on: OVCAR-8
[38] = tested on: PC-3
[39] = tested on: RPMI-8226
[40] = tested on: RXF 393
[41] = tested on: SF-268
[42] = tested on: SF-295
[43] = tested on: SF-539
[44] = tested on: SK-MEL-28
[45] = tested on: SK-MEL-2
[46] = tested on: SK-MEL-5
[47] = tested on: SK-OV-3
[48] = tested on: SN12C
[49] = tested on: SNB-19
[50] = tested on: SNB-75
[51] = tested on: SR
[52] = tested on: SW-620
[53] = tested on: T47D
[54] = tested on: TK-10
[55] = tested on: U-251
[56] = tested on: UACC-257
[57] = tested on: UACC-62
[58] = tested on: UO-31
[59] = tested on: NCI-H226

In the case of CC(=O)Oc1ccc(C2SCc3nc4ccccc4n32)cc1 (configuration not stated), the GI50 [1] is reported as 39.4 µM (inactive), the GI50 [2] is reported as 27.2 µM (inactive) and the GI50 [3] is reported as 32.2 µM (inactive). For the same compound, the GI50 [4] was 30.8 µM (inactive), the GI50 [5] was 6.4 µM (inactive) and the GI50 [6] was 24.4 µM (inactive). The GI50 [7] was 26.5 µM (inactive), the GI50 [8] was 19.3 µM (inactive) and the GI50 [9] was 51.5 µM (inactive). For the same compound, the GI50 [10] was 26.9 µM (inactive), the GI50 [11] was 33 µM (inactive) and the GI50 [12] was 23.3 µM (inactive). For the same compound, the GI50 [13] was 25.8 µM, the GI50 [14] was 10.6 µM (inactive) and the GI50 [15] was 41 µM (inactive). For the same compound, the GI50 [16] was 25.2 µM (inactive), the GI50 [17] was 23.3 µM (inactive) and the GI50 [18] was 32.5 µM (inactive). The GI50 [19] was 30.7 µM (inactive), the GI50 [20] was 7.23 µM (inactive) and the GI50 [21] was 15.3 µM (inactive). The GI50 [22] was 29.6 µM (inactive), the GI50 [23] was 48.6 µM (inactive) and the GI50 [24] was 8 µM (inactive). The GI50 [25] was 27.4 µM (inactive), the GI50 [26] was 5.48 µM (inactive) and the GI50 [27] was 14.8 µM (inactive). The GI50 [28] was 16.1 µM (inactive), the GI50 [29] was 30.2 µM (inactive) and the GI50 [30] was 16.3 µM (inactive). The GI50 [31] was 41.1 µM (inactive), the GI50 [32] was 22.8 µM (inactive) and the GI50 [33] was 14.8 µM (inactive). For the same compound, the GI50 [34] was 24.4 µM (inactive), the GI50 [35] was 24.4 µM (inactive) and the GI50 [36] was 69.5 µM (inactive). For the same compound, the GI50 [37] was 18.7 µM (inactive), the GI50 [38] was 24.2 µM (inactive) and the GI50 [39] was 14.5 µM (inactive). The GI50 [40] was 24.2 µM (inactive), the GI50 [41] was 21 µM (inactive) and the GI50 [42] was 21.7 µM (inactive). The GI50 [43] was 41 µM (inactive), the GI50 [44] was 52.7 µM (inactive) and the GI50 [45] was 22.5 µM (inactive). For the same compound, the GI50 [46] was 24.7 µM (inactive), the GI50 [47] was 26.8 µM (inactive) and the GI50 [48] was 49.8 µM (inactive). The GI50 [49] was 50.6 µM (inactive), the GI50 [50] was 19.9 µM (inactive) and the GI50 [51] was 15.6 µM (inactive). The GI50 [52] was 35.8 µM (inactive), the GI50 [53] was 18.3 µM (inactive) and the GI50 [54] was 35.2 µM (inactive). The GI50 [55] was 25.6 µM (inactive), the GI50 [56] was 33.5 µM (inactive) and the GI50 [57] was 29.7 µM (inactive). The GI50 [58] was 8.57 µM (inactive).
With O=C1CC(=O)NC(NN2C(=O)CSC2c2ccc(Cl)c(Cl)c2)=N1 (configuration not stated) the GI50 [1] was > 100 µM (inactive), the GI50 [2] was > 100 µM (inactive) and the GI50 [3] was > 100 µM (inactive). The GI50 [4] was > 100 µM (inactive), the GI50 [5] was > 100 µM (inactive) and the GI50 [6] was > 100 µM (inactive). The GI50 [7] was 19.5 µM (inactive), the GI50 [8] was > 100 µM (inactive) and the GI50 [9] was > 100 µM (inactive). For the same compound, the GI50 [11] was > 100 µM (inactive), the GI50 [12] was 63.2 µM (inactive) and the GI50 [13] was > 100 µM. The GI50 [15] was > 100 µM (inactive), the GI50 [16] was > 100 µM (inactive) and the GI50 [17] was 76.2 µM (inactive). The GI50 [18] was > 100 µM (inactive), the GI50 [19] was 50.9 µM (inactive) and the GI50 [20] was 49.8 µM (inactive). The GI50 [21] was 42.7 µM (inactive), the GI50 [23] was 31.6 µM (inactive) and the GI50 [24] was > 100 µM (inactive). For the same compound, the GI50 [25] was > 100 µM (inactive), the GI50 [26] was 65 µM (inactive) and the GI50 [27] was 82.8 µM (inactive). The GI50 [28] was 23.3 µM (inactive), the GI50 [29] was > 100 µM (inactive) and the GI50 [59] was > 100 µM (inactive). The GI50 [30] was > 100 µM (inactive), the GI50 [31] was > 100 µM (inactive) and the GI50 [32] was 71.8 µM (inactive). The GI50 [33] was > 100 µM (inactive), the GI50 [34] was > 100 µM (inactive) and the GI50 [35] was > 100 µM (inactive). The GI50 [36] was > 100 µM (inactive), the GI50 [37] was > 100 µM (inactive) and the GI50 [38] was > 100 µM (inactive). The GI50 [39] was > 100 µM (inactive), the GI50 [40] was > 100 µM (inactive) and the GI50 [41] was > 100 µM (inactive). For the same compound, the GI50 [42] was > 100 µM (inactive), the GI50 [43] was > 100 µM (inactive) and the GI50 [44] was > 100 µM (inactive). For the same compound, the GI50 [45] was > 100 µM (inactive), the GI50 [46] was > 100 µM (inactive) and the GI50 [47] was > 100 µM (inactive). The GI50 [48] was > 100 µM (inactive), the GI50 [50] was 75 µM (inactive) and the GI50 [51] was 43.8 µM (inactive). The GI50 [52] was > 100 µM (inactive), the GI50 [53] was > 100 µM (inactive) and the GI50 [54] was > 100 µM (inactive). The GI50 [55] was > 100 µM (inactive), the GI50 [56] was > 100 µM (inactive) and the GI50 [57] was 42.6 µM (inactive). The GI50 [58] was > 100 µM (inactive).
In the case of C=CCN1C(=O)/C(=C/c2ccccc2)N=C1SC1OC(COC(C)=O)C(OC(C)=O)C(OC(C)=O)C1OC(C)=O (configuration not stated), the GI50 [1] is reported as 23.9 µM (inactive), the GI50 [2] is reported as 38.1 µM (inactive) and the GI50 [3] is reported as 34 µM (inactive). The GI50 [4] was 22.9 µM (inactive), the GI50 [5] was 28.6 µM (inactive) and the GI50 [6] was 16.3 µM (inactive). The GI50 [7] was 22.5 µM (inactive), the GI50 [9] was 26.6 µM (inactive) and the GI50 [10] was 15.7 µM (inactive). The GI50 [11] was 49.7 µM (inactive), the GI50 [12] was 22.8 µM (inactive) and the GI50 [13] was 28.1 µM. The GI50 [14] was 26.5 µM (inactive), the GI50 [15] was 37.8 µM (inactive) and the GI50 [16] was 23.7 µM (inactive). For the same compound, the GI50 [17] was 32.7 µM (inactive), the GI50 [18] was 25.5 µM (inactive) and the GI50 [19] was 28.3 µM (inactive). For the same compound, the GI50 [20] was 24.4 µM (inactive), the GI50 [21] was 39.9 µM (inactive) and the GI50 [22] was 27.2 µM (inactive). For the same compound, the GI50 [23] was 30 µM (inactive), the GI50 [24] was 28.5 µM (inactive) and the GI50 [25] was 18.6 µM (inactive). The GI50 [26] was 26.9 µM (inactive), the GI50 [27] was 29 µM (inactive) and the GI50 [28] was 19.9 µM (inactive). For the same compound, the GI50 [29] was 19.5 µM (inactive), the GI50 [30] was 24.9 µM (inactive) and the GI50 [31] was 42.8 µM (inactive). For the same compound, the GI50 [32] was 16.3 µM (inactive), the GI50 [33] was 26.2 µM (inactive) and the GI50 [34] was 19.3 µM (inactive). The GI50 [35] was 27.2 µM (inactive), the GI50 [36] was 26 µM (inactive) and the GI50 [37] was 29.5 µM (inactive). The GI50 [38] was 16.5 µM (inactive), the GI50 [39] was 24.4 µM (inactive) and the GI50 [40] was 13.1 µM (inactive). The GI50 [41] was 21.4 µM (inactive), the GI50 [42] was 50.1 µM (inactive) and the GI50 [44] was 26.1 µM (inactive). The GI50 [45] was 18.5 µM (inactive), the GI50 [47] was 38.7 µM (inactive) and the GI50 [48] was 24.2 µM (inactive). The GI50 [49] was 29.6 µM (inactive), the GI50 [50] was 21.9 µM (inactive) and the GI50 [51] was 4.86 µM (inactive). For the same compound, the GI50 [52] was 28.5 µM (inactive), the GI50 [53] was 27.2 µM (inactive) and the GI50 [54] was 72.8 µM (inactive). For the same compound, the GI50 [55] was 19.2 µM (inactive), the GI50 [56] was 27.9 µM (inactive) and the GI50 [57] was 14.4 µM (inactive).
